Test results from patent US5686628A, “Proline derivatives” (Zeneca Ltd., priority 1995, dated 1997).
pKi: −log10 of the molar value. Where two headings read alike, the source gives them in different places. Values belong to the compound of their own block, whether it stands above or below them. Where a SMILES comes first, the peptide text is derived from it. [ ]: non-standard residue; d: D form. The star is where a group is joined. ξ: configuration not given here. ξV = CC(C)C(N)C(=O)O; CF3 = FC(F)(F)*; Moc = COC(=O)*

Legend:
[1] = target: T1, human leukocyte elastase (HLE) (Homo sapiens, UniProt P08246); assay: Inhibition of human leukocyte elastase (HLE) on low molecular weight peptide substrate methoxy-succinyl-alanyl-alanyl-prolyl-valine-p-nitroanilide; type: biochemical; conditions: kinetic determination, read-out: Ki (dissociation constant of the complex formed from the interaction of the inhibitor with HLE)
T1 sequence (P08246 30-267): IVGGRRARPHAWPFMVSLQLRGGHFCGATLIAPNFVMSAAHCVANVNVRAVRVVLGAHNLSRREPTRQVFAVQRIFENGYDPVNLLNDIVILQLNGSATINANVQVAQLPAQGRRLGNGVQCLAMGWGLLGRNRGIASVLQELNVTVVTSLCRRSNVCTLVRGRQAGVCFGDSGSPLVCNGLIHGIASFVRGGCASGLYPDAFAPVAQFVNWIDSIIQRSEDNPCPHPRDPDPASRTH
Method: The potency of the compound of the invention (or a particular form thereof) to act as an inhibitor of human leukocyte elastase (HLE) on the low molecular weight peptide substrate methoxy-succinyl-alanyl-alanyl-prolyl-valine-p-nitroanilide is determined as described in U.S. Pat. No. 4,910,190. The potency of the compound is evaluated by obtaining a kinetic determination of the dissociation constant, Ki, of the complex formed from the interaction of the inhibitor with HLE.

[2] = target: T2, human neutrophil elastase (HNE) (Homo sapiens, UniProt P08246); assay: Acute Hemorrhagic Assay (HNE-induced lung hemorrhage in hamsters); type: in vivo, Male Syrian hamsters; conditions: hamster, 50 μg/animal HNE intratracheal, 4 h, read-out: ED50 (inhibition of HNE-induced hemorrhage)
T2 sequence (P08246 30-267): T1 sequence (P08246 30-267)
Method: This assay relies on monitoring only the amount of hemorrhage in the lung following intratracheal administration of human neutrophil elastase (HNE). Hemorrhage is quantified by disrupting erythrocytes recovered in lung lavage fluid and comparing that to dilutions of whole hamster blood. […] Male Syrian hamsters (fasted for 16-18 hours prior to use) are lightly anaesthetised with Brevital sodium (30 mg/kg i.p.). […] Four hours after enzyme administration, the animals are killed with an overdose of pentobarbital sodium, the thorax opened and the lungs and heart removed and the lungs cleared of extraneous material. The excised lungs are lavaged with three changes of 2 ml PBS via a tracheal cannula. The recovered lavages are pooled, the volumes (about 5 mL) are recorded and the lavages stored at 4 ° C. until assayed. For calculation of the amount of blood in each sample, the thawed lavages and a sample of whole hamster blood are sonicated to disrupt erythrocytes and appropriately diluted into individual wells of a 96-well microtiter plate. The optical densities (OD) of the disrupted lavages and blood samples are determined at 540 nm. The (μL blood equivalents) / (mL lavage) are determined by comparing the OD of the test samples with the OD of the standard curve prepared from whole hamster blood. The total μL equivalents of blood recovered is determined by multiplying recovered lavage volume by the (μL blood equivalents) / (mL lavage) for each sample.

Bioavailability = type: in vivo; conditions: crystalline hydrated forms
[3] = Solubility in aqueous buffer; type: physicochemical; conditions: crystalline hydrated forms
Hygroscopicity = type: physicochemical

pKi [1]: 7.44
ED50 ([2]; oral dosing): 4.5 mg/kg
Structure (SMILES): COC(=O)N[C@H](C(=O)N1CCC[C@H]1C(=O)NC(C(=O)C(F)(F)F)C(C)C)C(C)C (stereo partly drawn) [Example 1, (S)-1-[(S)-2-(methoxycarbonylamino)-3-methylbutyryl]-N-[2-methyl-1-(2,2,2-trifluoroacetyl)propyl]pyrrolidine-2-carboxamide] (Moc-Val-Pro-[ξV]-CF3)

bioavailability (Bioavailability): good bioavailability
solubility in aqueous buffer [3]: good solubility in aqueous buffer
pKi [1]: 8.05
ED50 ([2]; iv, i.v. administration): 0.6 mg/kg
ED50 ([2]; oral dosing): 1.9 mg/kg
hygroscopicity (Hygroscopicity; listed as Form A): non-hygroscopic
Structure (SMILES): COC(=O)N[C@H](C(=O)N1CCC[C@H]1C(=O)N[C@H](C(=O)C(F)(F)F)C(C)C)C(C)C [Example 2, (S)-1-[(S)-2-(methoxycarbonylamino)-3-methylbutyryl]-N-[(S)-2-methyl-1-(2,2,2-trifluoroacetyl)propyl]-pyrrolidine-2-carboxamide] (HELM PEPTIDE1{[COC(=O)[*:2]].V.P.V.[FC(F)(F)[*:1]]}$$$$V2.0)

hygroscopicity (Hygroscopicity; listed as Form B): non-hygroscopic
Structure (SMILES): COC(=O)N[C@H](C(=O)N1CCC[C@H]1C(=O)N[C@H](C(=O)C(F)(F)F)C(C)C)C(C)C [Example 8] (HELM PEPTIDE1{[COC(=O)[*:2]].V.P.V.[FC(F)(F)[*:1]]}$$$$V2.0)

hygroscopicity (Hygroscopicity; listed as "ketone" form): hygroscopic
Structure (SMILES): COC(=O)N[C@H](C(=O)N1CCC[C@H]1C(=O)N[C@H](C(=O)C(F)(F)F)C(C)C)C(C)C [Example 10] (HELM PEPTIDE1{[COC(=O)[*:2]].V.P.V.[FC(F)(F)[*:1]]}$$$$V2.0)
